Test results published in patent US20250011347A1, “NOVEL PLASMALOGEN DERIVATIVE” (Institute of Rheological Function of Food Co., Ltd., priority 2021, published 2025).

Tests used:
[1] = system: microglia (Iba1-positive cells) and astrocytes (GFAP-positive cells) in hippocampal tissue; test: LPS-induced amoeboid shaped microglia and astrocytes increase in mouse hippocampal tissue (immunohistochemistry); format: in vivo; details: c57BL6J mice hippocampal tissue, 10 mg/50 kg/day in drinking water 4 weeks, then LPS 10 days
Procedure: Specifically, 8-week-old male c57BL6J mice were allowed to drink each of the compounds of the present invention (KIT-008 and KIT-020) at a dose of 10 mg/50 kg/day for 4 weeks, and were then subjected to LPS treatment (200 mg/kg/day) for 10 days while allowing them to drink the compound in the same manner. The mouse brain tissue was subjected to an immunohistochemistry (IHC) study using Iba1 (a microglia marker, Fujifilm 019-19741) and GFAP (an astrocyte marker, Sigma C9205). DAPI was used to stain a cell nucleus. In FIG. 17, the scale bar is 100 μm. The data in FIG. 18 represent the percentages of amoeboid shaped microglia and amoeboid shaped astrocytes (upper graphs) and the number of astrocytes (GFAP-positive cells) (a lower graph) in each group (3 mice, n=3). In the LPS group, the amoeboid shaped microglia (Iba1-positive cells) and the amoeboid shaped astrocytes (GFAP-positive cells) increased compared to the control group. In addition, the astrocytes (GFAP-positive cells) increased. However, in the KIT-008 group and the KIT-020 group, the LPS-induced amoeboid shaped microglia (Iba1-positive cells) increase and amoeboid shaped astrocytes (GFAP-positive cells) increase and astrocytes (GFAP-positive cells) increase were suppressed.

MeCP2-deficient mice = test: Survival (lifetime) of MeCP2-deficient mice; format: in vivo, mouse; details: male MeCP2-deficient mice from 4 weeks old, 20 ng/g body weight in drinking water twice a week
Procedure: Four-week-old male MeCP2-deficient mice were used in the experiment. The MeCP2-deficient mice were divided into two groups: a KIT-008 administration group (KO-KIT-008, n=13) and a control group (KO-All, n=28). The body weight of each of the mice in the administration group was measured in advance. The compound KIT-008 was suspended in water by sonication so that KIT-008 was ingested at 20 ng/g body weight, and it was continuously administered in drinking water to each mouse twice a week to verify its survival. The control group was given only water in the same manner.

CC/C=C\C/C=C\C/C=C\C/C=C\C/C=C\C/C=C\CCC(=O)O[C@H](COC/C=C/CCCCCCCCCCCCCCC)COP(=O)(O)OCCN [KIT-008, 2-((((R)-2-(((4Z,7Z,10Z,13Z,16Z,19Z)-docosa-4,7,10,13,16,19-hexenoyl)oxy)-3-(((E)-octadec-2-en-1-yl)oxy)propoxy)(hydroxy)phosphoryl)oxy)ethane-1-ammonium 2,2,2-trifluoroacetate]
LPS-induced amoeboid shaped astrocytes (GFAP-positive cells) increase ([1]; FIG. 17, 18): suppressed | LPS-induced amoeboid shaped microglia (Iba1-positive cells) increase ([1]; FIG. 17, 18): suppressed | LPS-induced astrocytes (GFAP-positive cells) increase (number) ([1]; FIG. 18 lower graph): suppressed | survival rate compared with MeCP2-deficient mice not administered (MeCP2-deficient mice; FIG. 5): higher | number of days until the survival rate reached 50% (MeCP2-deficient mice; control group 64.5 days): 78 days
